Data as given in BigSolDB 2.1.

Nc1ccc(S(=O)(=O)[O-])c(N)c1.[Na+]
solubility (mole fraction)
Conditions	in isopropanol	in methanol	in propylene glycol
273.15 K	2.2e-05	0.000977	0.000831
278.15 K	2.78e-05	0.00109	0.00121
283.15 K	3.51e-05	0.00145	0.00145
288.15 K	4.43e-05	0.00173	0.00196
293.15 K	5.57e-05	0.00228	0.00235
298.15 K	6.99e-05	0.00274	0.0028
303.15 K	8.76e-05	0.00318	0.00359
308.15 K	0.000109	0.00395	0.00431
313.15 K	0.000136	0.00466	0.00577
318.15 K	0.00017	0.00558	0.00749
323.15 K	0.000211	0.00661	0.00963
